The values below come from publication PMC12114375, “Discovery of Hydrazineyl Amide Derivative of Pseudolaric Acid B for Reprogramming Tumor-Associated Macrophages Against Tumor Growth” (Molecules, 2025).

Like-named read-outs stand apart in the source and are kept apart here.

One data set deals with Raw264.7 cells. Kind of data set: Cell viability (CCK-8) of RAW264.7 cells. The note with it: IL-4/IL-13 plus compound 10 μM, 12 h. In kind it is cell-based, mouse. As for the experimental part:
Cells were seeded in 96-well tissue culture plates. On the next day, cells were exposed to various concentrations of compounds and further cultured for the indicated period. Finally, cell proliferation was determined by using the Cell Counting Kit (CCK-8) (Dojindo, Kumamoto, Japan) assay.
Figure S2. Effects of natural pseudolaric acids 1-4, 6 and their O-pyranosides 5, 7 as well as the derivatives 8-18 o f 1 on Raw264.7 cell viability. Raw264.7 cells were treated with IL-4/IL-13 alone or combined with indicated compounds (10 μM) for 12 h. After incubation, the cell viability was determined using a cell counting kit (CCK-8, Dojindo, Japan) assay.
(1 picture or pasted object on this page, not shown here)

Data set [1] can be described thus: In vivo pharmacokinetic study in mice. Further details: species or system ICR mice. The note with it: 1 mg/kg i.v., mean ± SD. As for the experimental part: To investigate the druggability of compound 12, the pharmacokinetic (PK) properties of 12 were examined in mice. The mice were treated with 12 intravenously (i.v.) at a dose of 1 mg/kg, and the resulting PK parameters were recorded.
ICR mice (n = 3) were administered with the test compound via intravenous injection at 1 mg/kg. Blood samples were collected 0.083, 0.25, 0.5, 1, 2, 4, 8, and 24 h after administration. An aliquot of 10 μL of the plasma sample was deproteinized with 200 μL of a MeOH: ACN = 1: 1 solution containing an internal standard. After centrifugation, the supernatant was injected for LC–MS/MS analysis. A standard set of parameters, including the area under the curve (AUC0–∞), elimination half-life (T1/2), time to reach the maximum plasma concentration (Tmax), maximum plasma concentration (Cmax), plasma clearance (Cl), and mean residence time (MRT), were calculated using WinNonlin software.

In another data set the test system is Hepa1-6 tumor. Kind of data set: In vivo anti-tumor efficacy, Hepa1-6 subcutaneous tumor model. Particulars: Hepa1-6 model; for tumor growth inhibitory rate: intraperitoneal injections, once daily. The source says: Encouraged by its intriguing cellular activities, we investigated the anti-tumor effect of compound 12 in vivo. The Hepa1-6 liver cancer model, an immunocompetent macrophage-rich subcutaneous murine tumor model, was thus established. […] To further investigate whether the in vivo anti-tumor effect of compound 12 is associated with its inhibition of pro-tumoral macrophages and consequent activation of anti-tumor CD8^+ T cells, we analyzed the infiltration of macrophages and CD8^+ T cells in the tumor tissue of the Hepa1-6 model.
Animal procedures were approved by the Institutional Animal Care and Use Committee of the Shanghai Institute of Materia Medica (approval no. 2024-06-DJ-95). Mice (4–6 weeks old) were housed with five or six mice per cage in a specific pathogen-free room with a 12 h light/dark schedule at 25 °C ± 1 °C and were fed an autoclaved chow diet and water ad libitum. Hepa1-6 cells (2 × 10^6 cells) were subcutaneously implanted in the right flank of C57 BL/6 mice. […] The tumor volumes and body weights were measured twice per week. Tumor volume (TV) was calculated as follows: TV = (length × width^2)/2. Significant differences between the treated versus the vehicle groups were determined using the Student’s t-test. […] Viability was determined by staining with either the LIVE/DEAD® Fixable Violet Dead Cell Stain Kit (Invitrogen, Waltham, […], USA) or the Zombie Aqua™ Fixable Viability Kit (Biolegend, San Diego, CA, USA). Data were analyzed using FlowJo10.4 software.
Figure 4 Compound 12 inhibited Hepa1-6 tumor growth in vivo and remodeled the tumor microenvironment. […] The TVs (A) and body weights (B) are presented as the mean ± SEM. * p < 0.05 vs. the vehicle group, determined by the Student’s t-test. […] The infiltration of CD45^+ cells (C), TAMs (D), CD206^+ TAMs (E), ARG1^+ TAMs (F), CD8^+ T cells (G), GRZB^+ CD8^+ T cells (H), IFN γ^+ CD8^+ T cells (I), and TNF α^+ CD8^+ T cells (J) was tested (n = 8 mice in the vehicle group and n = 7 mice in the 12-treated group). * p < 0.05, ** p < 0.01, *** p < 0.001 vs. the vehicle group, determined by the Student’s t-test.

For the compound `COC(=O)C1=CC[C@@]23CC[C@@H]([C@@](C)(/C=C/C=C(\C)C(=O)NNCCO)OC2=O)[C@@]3(OC(C)=O)CC1` [compound 12, Methyl(3R,4S,4aS,9aR)-4a-acetoxy-3-((1E,3E)-5-(2-(2-hydroxyethyl)hydrazineyl)-4-methyl-5-oxopenta-1,3-dien-1-yl)-3-methyl-1-oxo-3,4,4a,5,6,9-hexahydro-1H-4,9a-ethanocyclohepta[c]pyran-7-carboxylate], the cell viability result in the data set with Raw264.7 cells is given as “no significant diminution in cell viability”. The Tmax in data set [1] (n = 3, 1 mg/kg) turned out to be 5 ± 0 min. In data set [1] (ICR, mouse, plasma, iv, n = 3), the total exposure AUC(0-inf) came out at 363 ± 29.4 ng·h/mL, the Cmax was 32.1 ± 11.7 ng/mL, the clearance was 46.1 mL/min/kg and the half-life is 40.2 ± 6.88 h. The MRT inf in data set [1] (ICR, mouse, plasma, iv, n = 3, read-out: MRT0–∞) worked out at 63.1 ± 7.96 h. Further, the time to peak (Tmax) in data set [1] (ICR, mouse, plasma, iv, 1 mg/kg, n = 3, read-out: Tmax) amounted to 4.98 min. The “body weight during the treatment” value in the data set with Hepa1-6 tumor (25 and 50 mg/kg) is on record as “no obvious loss of body weight”. In addition, the “tumor growth inhibitory rate” value with Hepa1-6 tumor (25 mg/kg) is given as 53.2%. Also, the “tumor growth inhibitory rate” value with Hepa1-6 tumor (50 mg/kg) was 48.3%.

The term Tmax denotes the time from dosing to the highest level. What is called AUC(0-inf) is total exposure, with the tail of the curve extrapolated. Lower therefore signals low exposure. One may read the Cmax as the peak of the concentration-time curve. Broadly, the clearance is the volume of plasma or blood freed of the substance per unit of time. A high value points to efficient removal. What is called half-life is the time needed for the level to fall by half in the phase considered. A low value points to fast loss.
